Data from patent publication US20230310455A1, “COMBINATION THERAPIES FOR TREATMENT OF HER2 CANCER” (Genentech, Inc., priority 2020, published 2023).

How the values were obtained:
[1] = tested on: HER2 negative (PIK3CA-mutant) breast cancer cell lines; experiment: Viability assay (CellTiter-Glo), HER2 negative breast cancer cell lines; format: cell-based; details: viability by ATP quantification
From the text: (§1) In a cell proliferation assay, we investigated the effect of inavolisib and alpelisib (both PI3Kα specific inhibitors) on vialibility of breast cancer cell lines having different HER2 expression and PIK3CA mutant status. Unexpectedly, we observed a significant difference between the sensitivity of inavolisib and alpelisib in HER2 amplified (˜20 fold difference between the mean IC50 values) versus HER2 negative cell lines (˜6-fold difference between two inhibitors). Both inhibitors were not differentiated in wild-type (WT) cell lines regardless of HER2 status (FIG. 1).
(§2) Cell lines were obtained from the ATCC. All cell lines underwent authentication by Short Tandem Repeat profiling, SNP fingerprinting, and mycoplasma testing (Yu M. et al. “A resource for cell line authentication, annotation and quality control” Nature 520, 307-311 (2015)). Cell lines were grown under standard tissue-culture conditions in RPMI media with 10% fetal bovine serum (Gibco, 10082-147), 100 U/mL penicillin-streptomycin (Gibco, 15140-122), 2 mmol/L L-glutamine (Gibco, 15030-081). […]
(§3) Viability assay: Cells were seeded (1000-2000 cells/well) in 384-well plates for 16 hours. […] After 4 days, relative numbers of viable cells were measured by luminescence using CellTiter-Glo® (Promega) according to the manufacturer's instructions and read on a Wallac Multilabel Reader (PerkinElmer, Foster City). […]

[2] = tested on: HER2 amplified (HER2-positive PIK3CA-mutant) breast cancer cell lines; experiment: Viability assay (CellTiter-Glo), HER2 amplified breast cancer cell lines; format: cell-based; details: viability by ATP quantification
From the text: as §1, §2, §3

[3] = target: Class I PI3K alpha isoform (PI3Kα) versus Class I PI3K beta, delta, and gamma isoforms (Homo sapiens, UniProt P42336); details: cited from earlier work
[4] = tested on: KPL-4 (HER2-positive, PIK3CA H1047R) breast cancer xenograft; experiment: In vivo tumor growth inhibition, KPL-4 breast cancer xenograft model; details: inavolisib 25 mg/kg orally daily 28 days, trastuzumab 3 mg/kg and pertuzumab 2.5 mg/kg i.p. weekly 4 weeks
Method: The in vivo efficacy of the test compounds and combinations was tested in a KPL-4 (HER2-positive, PIK3CA H1047R) breast cancer xenograft model. […] Tumor volumes were measured using Ultra Cal-IV calipers (Model 54-10-111; Fred V. Fowler Co.; Newton, MA). The following formula was used in Excel, version 11.2 to calculate tumor volume: Tumor Volume (mm^3)=(Length×Width^2)×0.5. Mice for efficacy studies were distributed into 8-10 mice/group with a mean tumor volume of 200 to 250 mm^3 at the initiation of dosing. A linear mixed effect (LME) modeling approach was used to analyze the repeated measurement of tumor volumes from the same animals over time (Pinheiro et al., “Linear and Nonlinear Mixed Effects Models” R package version 3; 1-131 (2017)). Cubic regression splines were used to fit a non-linear profile to the time courses of log^2 tumor volume at each dose level. These non-linear profiles were then related to dose within the mixed model. Tumor growth inhibition as a percentage of vehicle control (%TGI) was calculated as the percentage of the area under the fitted curve (AUC) for the respective dose group per day in relation to the vehicle, using the following formula: %TGI=100×(1−AUCdose/AUCvehicle).
Tumor sizes and mouse body weights were recorded twice weekly, and mice with tumor volume exceeding 2000 mm^3 or body weight loss of 20% of starting weight were promptly euthanized.

Chain of Class I PI3K alpha isoform (PI3Kα) versus Class I PI3K beta, delta, and gamma isoforms (P42336 whole entry, canonical isoform): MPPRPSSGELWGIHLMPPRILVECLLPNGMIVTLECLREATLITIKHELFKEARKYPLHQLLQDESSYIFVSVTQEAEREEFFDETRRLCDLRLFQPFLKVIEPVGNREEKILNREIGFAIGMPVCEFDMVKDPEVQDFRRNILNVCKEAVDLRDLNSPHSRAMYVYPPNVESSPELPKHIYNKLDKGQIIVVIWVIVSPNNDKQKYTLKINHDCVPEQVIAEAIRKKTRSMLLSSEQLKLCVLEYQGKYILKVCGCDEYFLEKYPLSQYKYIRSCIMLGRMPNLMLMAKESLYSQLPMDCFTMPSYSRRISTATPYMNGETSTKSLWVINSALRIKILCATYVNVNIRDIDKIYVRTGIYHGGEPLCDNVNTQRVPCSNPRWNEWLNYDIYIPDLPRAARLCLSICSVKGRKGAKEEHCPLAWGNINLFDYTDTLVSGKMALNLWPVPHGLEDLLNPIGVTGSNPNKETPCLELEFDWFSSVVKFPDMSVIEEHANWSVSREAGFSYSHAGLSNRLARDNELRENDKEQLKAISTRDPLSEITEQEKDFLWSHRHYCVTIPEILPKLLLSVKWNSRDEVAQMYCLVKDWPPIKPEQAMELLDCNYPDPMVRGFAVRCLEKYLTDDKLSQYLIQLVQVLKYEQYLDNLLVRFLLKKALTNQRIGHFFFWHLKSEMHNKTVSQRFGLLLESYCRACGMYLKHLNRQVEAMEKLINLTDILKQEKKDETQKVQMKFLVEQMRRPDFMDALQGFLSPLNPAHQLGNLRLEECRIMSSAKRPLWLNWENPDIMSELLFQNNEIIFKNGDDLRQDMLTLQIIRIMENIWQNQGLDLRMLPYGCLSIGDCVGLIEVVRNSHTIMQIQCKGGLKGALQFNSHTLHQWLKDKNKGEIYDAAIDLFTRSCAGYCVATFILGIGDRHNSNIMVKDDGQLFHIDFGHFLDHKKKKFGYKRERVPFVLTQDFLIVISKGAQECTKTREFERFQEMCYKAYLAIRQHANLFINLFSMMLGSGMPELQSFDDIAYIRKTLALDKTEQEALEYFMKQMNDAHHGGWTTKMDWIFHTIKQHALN
Chain of Class I PI3K alpha isoform (PI3Kα) versus Class I PI3K beta, delta, and gamma isoforms (P27986 whole entry partner, canonical isoform): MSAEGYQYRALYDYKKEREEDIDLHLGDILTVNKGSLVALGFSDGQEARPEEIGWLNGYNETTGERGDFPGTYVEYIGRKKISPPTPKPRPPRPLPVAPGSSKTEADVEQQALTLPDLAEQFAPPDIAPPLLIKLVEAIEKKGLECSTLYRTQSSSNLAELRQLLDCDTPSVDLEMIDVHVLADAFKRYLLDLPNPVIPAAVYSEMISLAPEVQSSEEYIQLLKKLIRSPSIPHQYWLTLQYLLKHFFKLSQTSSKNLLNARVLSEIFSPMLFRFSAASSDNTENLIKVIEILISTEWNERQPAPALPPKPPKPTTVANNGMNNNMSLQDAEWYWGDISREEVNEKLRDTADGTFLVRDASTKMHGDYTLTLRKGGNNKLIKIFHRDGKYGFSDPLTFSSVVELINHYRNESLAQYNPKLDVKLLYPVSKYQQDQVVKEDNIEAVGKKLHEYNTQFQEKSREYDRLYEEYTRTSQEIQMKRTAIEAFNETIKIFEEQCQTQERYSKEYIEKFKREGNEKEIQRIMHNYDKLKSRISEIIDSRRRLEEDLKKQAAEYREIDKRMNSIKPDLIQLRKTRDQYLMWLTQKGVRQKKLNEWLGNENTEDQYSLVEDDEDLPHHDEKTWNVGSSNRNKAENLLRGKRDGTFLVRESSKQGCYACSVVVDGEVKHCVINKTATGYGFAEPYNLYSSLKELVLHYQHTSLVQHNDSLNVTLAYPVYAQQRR

In the case of `C[C@H](Nc1ccc2c(c1)OCCn1cc(N3C(=O)OC[C@H]3C(F)F)nc1-2)C(N)=O` [inavolisib, (S)-2-((2-((S)-4-(difluoromethyl)-2-oxooxazolidin-3-yl)-5,6-dihydrobenzo[f]imidazo[1,2-d][1,4]oxazepin-9-yl)amino)propanamide], the “difference between two inhibitors (mean IC50 values of inavolisib and alpelisib)” value [1] is given as 6 fold, the “difference between the mean IC50 values of inavolisib and alpelisib” value [2] is given as ~20 fold and the “less potent biochemical inhibition for other Class I PI3K beta, delta, and gamma isoforms (selectivity for PI3Kα)” value [3] is given as > 300 fold. The “Growth Effect Duration” value [4] was >31.0, the “Growth Rate Contrast” value [4] was −0.069 and the “Growth Contrast” value ([4]; 9 mice per group) was −0.086.
